We go through three compounds from patent US20260137697A1, “THIAZOLO[5,4-D]PYRIMIDINE COMPOUNDS, COMPOSITIONS COMPRISING THEM AND USES THEREOF” (University de Montreal, priority 2022, published 2026).

As usually defined, the IC50 is the concentration at which inhibition is half-maximal. Higher therefore signals lower potency.

Type in all cases: cell-based, human
The subject of experiment [1] is pERK, RAS-mutant cancer cell lines. The experiment is described as follows: Paradoxical pERK induction across the panel of RAS-mutant cancer cell lines. The following applies: in 10 of the 13 RAS-mutant cell lines tested; mild to strong induction of the pathway. As for the experimental part: (§1) All cancer cell lines (A375, A101D, A2058, RKO, HT29 SK-MEL 30, IPC298, HepG2, HCT-116, Lovo, SW620, SW480, NCI-H358, NCI-H2122, Calu-6, NCIH2087, NCIH1755, NCIH1666 and Mewo) were obtained from ATCC and cultured in RPM1-1640 medium (Gibco) supplemented with 5% heat inactivated fetal bovine serum (FBS, Wisent) at 37° C. under 5% CO2. Cells were maintained in T175 flasks (Greiner). They were passaged by removing the culture medium, washing once in 10 mL of room temperature Phosphate Buffered Saline (PBS; Wisent) and incubating at 37° C. with 2 mL of 0.05% Trypsin (Thermo-Fisher). […]
After treatment, media was removed, and cells were lysed in 50 μL of 1× AlphaScreen Ultra Lysis Buffer (Perkin Elmer). […] After completion of the reactions, the signals were recorded on an EnVision plate reader (Perkin Elmer) using built in AlphaLISA® settings.
The effect of each compound dilution on the pERK signal was expressed in % inhibition and calculated as follows. […]
The ability of each compound to inhibit pERK signal was expressed as an IC50 value obtained by plotting the inhibition values for each data point of a dilution series and fitting the obtained curves using a log(agonist) versus response—variable slope (four parameters) function using GraphPadPrism (V7.0) or Dotmatics Screening Ultra platform. […]

The test system of a further experiment is pERK, HCT116 cells. The experiment is described as follows: Phospho-ERK inhibition, AlphaLISA p-ERK 1/2, HCT-116. The following applies: Table 3; for IC50: HCT116 cells (KRAS G13D), 1 h treatment; for HCT116 pERK (Ymin %): lowest % inhibition value of the pERK IC50 curve, above −20% = no paradoxical induction. A digest of the protocol:
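Cells in RPMI-1640 with 5% FBS plated overnight, then treated 1 h with ten-point dilutions (10 μM to 0.33 nM, 0.5% DMSO). Lysate p-ERK1/2 (Thr202/Tyr204) read by AlphaLISA SureFire Ultra; % inhibition normalised to DMSO and 1 μM trametinib background, IC50 by four-parameter fit.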
On the technique in general: Alpha assays give light when donor and acceptor beads are brought close together.

For another experiment, the system named is A101D cells. The experiment is described as follows: Proliferation inhibition, CellTiter-Glo, A101D. The following applies: Table D-1; A101D (BRAF V600E), 3 days; read-out: Prolif. (proliferation EC50). As for the experimental part: as §1
(§2) After 3 days of incubation, the growth media were removed by aspiration and 60 μL of diluted CellTiter-Glo® reagent (10 μL CellTiter-Glo® reagent+50 μL of PBS) was added to each well. […] Luminescence signals were then acquired on a Synergy Neo2 plate reader (Biotek).
(§3) The effect of each compound dilution on the proliferation of cancer cell lines was expressed in % inhibition and calculated as follows. […]
(§4) The ability of each compound to inhibit proliferation was expressed as a EC50 value obtained by plotting the effect values for each data point of a dilution series and fitting the obtained curves using a log(agonist) versus response—variable slope (four parameters) function using GraphPadPrism (V7.0) or Dotmatics Screening Ultra platform.
In general terms: In ATP-based viability assays light output follows the ATP content of the culture.

The test system of a further experiment is A2058 cells. Nature of the experiment: Proliferation inhibition, CellTiter-Glo, A2058. The following applies: Table D-1; A2058 (BRAF V600E), 3 days; read-out: Prolif. (proliferation EC50). The procedure: as §1, §2, §3, §4

Some results are limits rather than exact numbers.

Turning to `Cc1ccc2c(Nc3cccc(Cl)c3F)nccc2c1NC(=O)c1csc2c(N)ncnc12` [Belvarafenib, reference compound], in experiment [1], the “YMIN of pERK IC50 curves” value is under −30%.
Take `N#CC1(c2cccc3c2ncn3-c2nc3c(Nc4c(F)ccc(NS(=O)(=O)c5cccc(Cl)c5Cl)c4F)ncnc3s2)CC1` [Example 122]: in the experiment with pERK, HCT116 cells, the IC50 is under 500 nM and the “HCT116 pERK (Ymin %)” value turned out to be 2%. In addition, in the experiment on A101D cells, the EC50 is under 300 nM. For the same compound, the EC50 with A2058 cells was under 300 nM.
With `Cc1c(F)cccc1S(=O)(=O)Nc1ccc(F)c(Nc2ncnc3sc(-n4cc(C(=O)N5C6CCC5CN(C)C6)c5ccccc54)nc23)c1F` [Example 44], in the experiment with pERK, HCT116 cells, the IC50 was under 500 nM and the “HCT116 pERK (Ymin %)” value is 3%. The EC50 with A101D cells is under 300 nM. The EC50 with A2058 cells was under 300 nM.
